The values below come from US20030207792A1, “Treating cancer” (priority 2002, published 2003).

Holding throughout (assay type): cell-based
One series concerns pRb. In words: Western blot analysis of pRb level in HCT116 cells 48 h after oligonucleotide transfection. Particulars: oligonucleotide 1 μM with lipofectin 19 μg/ml, extracts after 48 h, Western blot band intensity. As for the experimental part:
(§1) Sense and antisense phosphorothionate oligonucleotide with the sequence set out in SEQ1 and SEQ2 respectively were synthesised in a 380B DNA synthesiser. Each oligonucleotide was premixed with lipofectin reagent and diluted in DMEM (Gibco). 6 cm plates of HCT116 cells at 40-50% confluence were rinsed once with 4 ml serum free DMEM and transfected with the oligonucleotides at a final concentration of 1 μM and the lipofectin reagent at a final concentration of 19 μg/ml according to the manufacturer's instructions (Life Technologies Inc., Gaithersburg, Md.). After 4 hours, Foetal Calf Serum (Gibco) was added to a final concentration of 10%. A lipofectin only transfection was performed as a control. Cell extracts were harvested after 48 h and examined by Western blot analysis with a pRb antibody. Equal loading of protein samples was confirmed by Coomassie blue staining or by immunoreactivity with an anti-actin antibody (Sigma). The intensities of the Rb bands were quantised with an image scanner (Molecular Dynamics). […] The treatment with the sense oligonucleotide led to about a 5% reduction in the level of pRb. […] Apoptosis in the cultures 48 h after transfection was tested for using the TUNEL assay. An in situ apoptosis detection kit ApopTag (Oncor, Gaithersburg, Md.) was used as recommended by the manufacturer. […]

For series [1], the system named is HCT116 cells. In words: TUNEL assay (ApopTag) for apoptosis 48 h after transfection. On the procedure:
Sense and antisense phosphorothionate oligonucleotide with the sequence set out in SEQ1 and SEQ2 respectively were synthesised in a 380B DNA synthesiser. Each oligonucleotide was premixed with lipofectin reagent and diluted in DMEM (Gibco). 6 cm plates of HCT116 cells at 40-50% confluence were rinsed once with 4 ml serum free DMEM and transfected with the oligonucleotides at a final concentration of 1 μM and the lipofectin reagent at a final concentration of 19 μg/ml according to the manufacturer's instructions (Life Technologies Inc., Gaithersburg, Md.). After 4 hours, Foetal Calf Serum (Gibco) was added to a final concentration of 10%. A lipofectin only transfection was performed as a control. Cell extracts were harvested after 48 h and examined by Western blot analysis with a pRb antibody. Equal loading of protein samples was confirmed by Coomassie blue staining or by immunoreactivity with an anti-actin antibody (Sigma). The intensities of the Rb bands were quantised with an image scanner (Molecular Dynamics). […] The treatment with the sense oligonucleotide led to about a 5% reduction in the level of pRb. […] Apoptosis in the cultures 48 h after transfection was tested for using the TUNEL assay. An in situ apoptosis detection kit ApopTag (Oncor, Gaithersburg, Md.) was used as recommended by the manufacturer. The percentage of TUNEL positive cells was 1.5+/−1% for the lipofectin treated culture, 3+/−0.5% for the culture transfected with the sense oligonucleotide and 18+/−0.5% for the culture transfected with the antisense oligonucleotide. Thus, the sense oligonucleotide caused about a two-fold increase in apoptosis, but the antisense oligonucleotide caused over a 10-fold increase in apoptosis. As the antisense oligonucleotide inhibits growth and increases apoptosis, it is thus an effective chemotherapeutic agent.

For series [2], the system named is HCT116 cells. Put plainly: Growth curves of transfected HCT116 cultures. To be noted: oligonucleotide 1 μM with lipofectin. As for the experimental part:
as §1

Read-outs that look alike come from different tables or passages of the source.

As for “5′-GGTTTTGGGCGGCATGAC-3′ (DNA, all phosphorothioate, methylation of C not given here) [antisense oligonucleotide]”, the “level of pRb expression relative to the control culture treated only with lipofectin” value in the series with pRb is reported as “about 30%”. Moreover, the “percentage of TUNEL positive cells” value with HCT116 cells [1] (HCT116 cells, 48 h after transfection, oligonucleotide 1 μM) was 18+/−0.5%. Further, the “fold increase in apoptosis” value in the series with HCT116 cells [1] (HCT116 cells, 48 h after transfection, versus lipofectin treated culture) was greater than 10 fold. Besides, the “effect on growth (growth curves) compared with the lipofectin-treated control culture” value in the series on HCT116 cells [2] is given as “displayed growth inhibition”.

Consider “5′-GTCATGCCGCCCAAAACC-3′ (phosphorothioate, further chemistry not given here) [sense oligonucleotide, reference compound]”, for which the “fold increase in apoptosis” value with HCT116 cells [1] was “two-fold”.
